Assays:
Assay in all cases: relative viability (nuclei count vs DMSO), 5 days (fraction); higher = more cells survive
NCI-H1355 = system: NCI-H1355
Summary of the method: (§1)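 Dosing by pin tool came one day after lung cancer cell lines were seeded in 1536-well plates, using either one drug or a fixed anchor-drug dose plus five library-drug doses (not always all listed) in √10 steps. After 5 days, nuclei were counted on 4× images. Relative viability is treated-well nuclei count divided by vehicle-well nuclei count, and values are medians of duplicate plates.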

RERF-LC-KJ = system: RERF-LC-KJ
Summary of the method: as §1

CAL-12T = system: CAL-12T
Summary of the method: as §1

HCC-15 = system: HCC-15
Summary of the method: as §1

LK-2 = system: LK-2
Summary of the method: as §1

HCC-827 = system: HCC-827
Summary of the method: as §1

ABC-1 = system: ABC-1
Summary of the method: as §1

NCI-H2405 = system: NCI-H2405
Summary of the method: as §1

NCI-H1651 = system: NCI-H1651
Summary of the method: as §1

H3255 = system: H3255
Summary of the method: as §1

PC-3 [JPC-3] = system: PC-3 [JPC-3]
Summary of the method: as §1

PC-14 = system: PC-14
Summary of the method: as §1

EKVX = system: EKVX
Summary of the method: as §1

NCI-H1437 = system: NCI-H1437
Summary of the method: as §1

NCI-H1734 = system: NCI-H1734
Summary of the method: as §1

NCI-H322M = system: NCI-H322M
Summary of the method: as §1

For `CC(C)Oc1cc(Nc2nc(N[C@@H](C)c3ccc(F)cn3)ncc2Cl)n[nH]1` [AZ23] + NC(=O)Nc1cc(-c2cccc(F)c2)sc1C(=O)N[C@H]1CCCNC1 [AZD7762] (partner 0.2 µM), which relative viability (NCI-H1355; first compound 0.01 µM) is on record?
Its relative viability is 0.711.

And the relative viability (NCI-H1355; first compound 0.03162 µM)?
Its relative viability is 0.808.

And the relative viability (NCI-H1355; first compound 0.3162 µM)?
The relative viability was 0.916.

And the relative viability (RERF-LC-KJ; first compound 0.01 µM)?
The relative viability was 1.09.

What about the relative viability (RERF-LC-KJ; first compound 0.03162 µM) of the same compound?
The relative viability was 1.02.

What about the relative viability (RERF-LC-KJ; first compound 0.3162 µM) of the same compound?
Its relative viability is 1.11.

And the relative viability (CAL-12T; first compound 0.01 µM)?
Its relative viability is 0.614.

And the relative viability (CAL-12T; first compound 0.03162 µM)?
Its relative viability is 0.689.

And the relative viability (CAL-12T; first compound 0.3162 µM)?
Its relative viability is 0.717.

What about the relative viability (HCC-15; first compound 0.01 µM) of the same compound?
The relative viability was 1.43.

And the relative viability (HCC-15; first compound 0.03162 µM)?
Its relative viability is 1.34.

What about the relative viability (HCC-15; first compound 0.3162 µM) of the same compound?
The relative viability was 1.35.

And the relative viability (LK-2; first compound 0.03162 µM)?
The relative viability was 0.472.

What about the relative viability (LK-2; first compound 0.3162 µM) of the same compound?
The relative viability was 0.411.

And the relative viability (HCC-827; first compound 0.01 µM)?
Its relative viability is 0.147.

What about the relative viability (HCC-827; first compound 0.03162 µM) of the same compound?
Its relative viability is 0.223.

What about the relative viability (HCC-827; first compound 0.3162 µM) of the same compound?
Its relative viability is 0.212.

What about the relative viability (ABC-1; first compound 0.03162 µM) of the same compound?
The relative viability was 1.23.

And the relative viability (ABC-1; first compound 0.3162 µM)?
Its relative viability is 0.835.

And the relative viability (NCI-H2405; first compound 0.01 µM)?
Its relative viability is 0.538.

And the relative viability (NCI-H2405; first compound 0.03162 µM)?
The relative viability was 0.864.

What about the relative viability (NCI-H2405; first compound 0.3162 µM) of the same compound?
Its relative viability is 0.843.

And the relative viability (NCI-H1651; first compound 0.01 µM)?
The relative viability was 0.376.

And the relative viability (NCI-H1651; first compound 0.03162 µM)?
Its relative viability is 0.541.

What about the relative viability (NCI-H1651; first compound 0.3162 µM) of the same compound?
The relative viability was 0.623.

And the relative viability (H3255; first compound 0.01 µM)?
Its relative viability is 0.828.

What about the relative viability (H3255; first compound 0.03162 µM) of the same compound?
The relative viability was 0.958.

And the relative viability (H3255; first compound 0.3162 µM)?
The relative viability was 0.931.

And the relative viability (PC-3 [JPC-3]; first compound 0.01 µM)?
The relative viability was 0.663.

And the relative viability (PC-3 [JPC-3]; first compound 0.03162 µM)?
Its relative viability is 0.837.

What about the relative viability (PC-3 [JPC-3]; first compound 0.3162 µM) of the same compound?
The relative viability was 0.77.

What about the relative viability (PC-14; first compound 0.01 µM) of the same compound?
The relative viability was 0.326.

What about the relative viability (PC-14; first compound 0.03162 µM) of the same compound?
The relative viability was 0.339.

And the relative viability (PC-14; first compound 0.3162 µM)?
Its relative viability is 0.375.

What about the relative viability (EKVX; first compound 0.01 µM) of the same compound?
Its relative viability is 0.625.

And the relative viability (EKVX; first compound 0.03162 µM)?
The relative viability was 0.837.

And the relative viability (EKVX; first compound 0.3162 µM)?
The relative viability was 0.676.

And the relative viability (NCI-H1437; first compound 0.01 µM)?
Its relative viability is 1.17.

And the relative viability (NCI-H1437; first compound 0.03162 µM)?
The relative viability was 1.18.

And the relative viability (NCI-H1437; first compound 0.3162 µM)?
Its relative viability is 1.19.

And the relative viability (NCI-H1734; first compound 0.01 µM)?
The relative viability was 0.602.

What about the relative viability (NCI-H1734; first compound 0.03162 µM) of the same compound?
The relative viability was 0.688.

What about the relative viability (NCI-H1734; first compound 0.3162 µM) of the same compound?
Its relative viability is 0.795.

What about the relative viability (NCI-H322M; first compound 0.01 µM) of the same compound?
Its relative viability is 0.468.

And the relative viability (NCI-H322M; first compound 0.03162 µM)?
Its relative viability is 0.527.

And the relative viability (NCI-H322M; first compound 0.3162 µM)?
Its relative viability is 0.614.
